This note sets out measurements from the SangsterLogP compilation.

One data set in a line: method code SF, from DOI: 10.1021/jm00266a011, PMID: 4583365.
Details: not given
As usually defined, the logP is the decadic logarithm of the partition coefficient of the neutral form, usually between octanol and water. The low end stands for a more hydrophilic compound, the high end for a more lipophilic compound. Consider `CN(Cc1ccccc1)/N=N/c1nc[nH]c1C(N)=O`, for which the logP worked out at 1.54.
Compound `N#CCC(=O)NC(CO)C(O)c1ccc([N+](=O)[O-])cc1` (stereo not given) registered a lipophilicity (logP) of -0.22.

A short description of a further data set: method code SF-AS, from DOI: 10.1021/jm00266a011, PMID: 4583365.
Details: not given
`O=C(N[C@H](CO)[C@H](O)c1ccc([N+](=O)[O-])cc1)C(Br)Br` showed a logP of 1.36.
Same read-out and setting: to `CCC(CC)C(=O)N[C@H](CO)[C@H](O)c1ccc([N+](=O)[O-])cc1` belongs 1.71.
`N#CC(C(=O)NC(CO)C(O)c1ccc([N+](=O)[O-])cc1)c1ccccc1` (stereo not given) yielded a logP of 1.47.
On the same count and under the same terms, to `O=C(CCl)NC(CO)C(O)c1ccc([N+](=O)[O-])cc1` (stereo not given) belongs 0.59.
The same measure, in the same setting: next, `O=C(N[C@H](CO)[C@H](O)c1ccc([N+](=O)[O-])cc1)C(Br)(Br)Br`: 2.17; `CCCCCCCCN(C)/N=N/c1nc[nH]c1C(N)=O`: 3.22; `O=C(CI)N[C@H](CO)[C@H](O)c1ccc([N+](=O)[O-])cc1`: 1.03.
Still for that read-out and setting: to `O=C(NC(CO)C(O)c1ccc([N+](=O)[O-])cc1)C(F)(F)F` (stereo not given) belongs 1.07; to `O=C(NC(CO)C(O)c1ccc([N+](=O)[O-])cc1)C(Cl)(Cl)Cl` (stereo not given), 1.97.
Compound `O=C(N[C@H](CO)[C@H](O)c1ccc(-c2ccccc2)cc1)C(Cl)Cl` yielded a logP of 2.86.
`CC(Cl)C(=O)NC(CO)C(O)c1ccc([N+](=O)[O-])cc1` (stereo not given): the logP turned out to be 0.98.
Regarding `O=C(CF)NC(CO)C(O)c1ccc([N+](=O)[O-])cc1` (stereo not given), the lipophilicity (logP) stood at 0.15.
Turning to `CCCC(=O)NC(CO)C(O)c1ccc([N+](=O)[O-])cc1` (stereo not given), the logP was determined as 0.87.
`CC(=O)NC(CO)C(O)c1ccc([N+](=O)[O-])cc1` (stereo not given) yielded a logP of -0.03.
Same read-out and setting: next, `O=C(N[C@@H](CO)[C@@H](O)c1ccc(I)cc1)C(Cl)Cl` (relative stereo): 2.22; `O=C(N[C@H](CO)[C@H](O)c1ccc([N+](=O)[O-])cc1)C(F)F`: 0.42; `O=C(Cc1ccccc1)NC(CO)C(O)c1ccc([N+](=O)[O-])cc1` (stereo not given): 1.52.
Still for that read-out and setting: next, `O=C(NC(CO)C(O)c1ccccc1)C(Cl)Cl` (stereo not given): 0.94; `N#Cc1ccc([C@@H](O)[C@@H](CO)NC(=O)C(Cl)Cl)cc1`: 1.29.
Same read-out and setting: next, `O=C(NC(CO)C(O)c1ccc([N+](=O)[O-])cc1)c1ccccc1` (stereo not given): 1.63; `O=C(N[C@H](CO)[C@H](O)c1ccc(Br)cc1)C(Cl)Cl`: 1.87.
In the case of `CC(C)C(=O)N[C@H](CO)[C@H](O)c1ccc([N+](=O)[O-])cc1`, the lipophilicity (logP) came out at 0.88.

The data set is the same for the next values; noted with them: pH 7.4.
By logD is commonly meant lipophilicity at a set pH, counting ionised and neutral species. Read a high logD as a more lipophilic compound. For the compound `CC(C)(C)C(=O)N[C@H](CO)[C@H](O)c1ccc([N+](=O)[O-])cc1`, the pH-dependent lipophilicity (logD) stood at 1.33.
